Measured values as given in US8673548B2, “Genes and polypeptides relating to breast cancers” (Oncotherapy Science, Inc., priority 2006, dated 2014).

Key:
Assay type in all cases: cell-based, human
PBK/TOPK [1] = test: western blot of PBK/TOPK after nocodazole; details: T47D; 6 to 18 h
T47D cells = test: FACS cell cycle analysis after nocodazole
Experimental: For PBK/TOPK, the cell cycle of cultured T47D breast cancer cells were synchronized via the treatment with aphidicolin (Sigma-Aldrich) for 16 h, washing 5 times with PBS (−), and addition of fresh culture media to release from cell-cycle arrest. For 15 h (every 3 h) after releasing, cells were collected and fixed with 70% ethanol, and then kept at 4° C. before use. Cells were incubated with 10 mg/mL RNaseI in PBS (−) at 37° C. for 30 min and stained with 50 μg of propidium iodide at room temperature for 30 min. Cell suspensions at each time point were analyzed with FACscan (Becton Dickinson, Franklin Lakes, N.J.).
To collect the G2/M arrested cells, 0.3 μg/mL of nocodazole (Sigma-Aldrich) was treated to culture media for the last 16 hours before collection.

PBK/TOPK [2] = test: western blot of PBK/TOPK phosphorylation after okadaic acid; details: T47D
Experimental: Wild-type and kinase-dead PBK/TOPK proteins were exogenously expressed by transfection into T47D cell using pCAGGS-nHA expression vector. Whole cell lysates were harvested 48 h after the transfection. The cells were lysed in the cell lysis buffer as described above. The following procedures are the same as described above except that anti-HA rat high-affinity antibody (Roche) was used for the antibody reaction. […] The following procedures were also carried out as described above. Phosphorylated protein was confirmed by treatment with 1 U of lambda protein phosphatase (New England Biolabs, Ipswich, Mass.) at 30° C. for 2 h.

A7322 = test: semi-quantitative RT-PCR of A7322 after siRNA vector transfection; details: BT-549 and BT-474 cells; compared with psiU6BX-Mock
Experimental: Inventors established a vector-based RNAi (RNA interference) expression system using psiU6BX3.0 siRNA expression vector as described previously (Taniuchi K et al. Cancer Res., 65:105-112. 2005.). siRNA expression vectors against A7322 (psiU6BX3.0-A7322), F3374V1 (psiU6BX3.0-F3374V1), EGFP (psiU6BX3.0-EGFP), Scramble (psiU6BX3.0-SCR) and Mock (psiU6BX3.0-Mock) were prepared by cloning of double-stranded oligonucleotides into the BbsI site of the psiU6BX3.0 vector. The target sequences of synthetic oligonucleotides for siRNA were as follows;
(§1) Human breast cancer cells-lines, BT-549 and BT-474 (for A7322) and T47D and HBC4 (for F3374), were plated onto 10-cm dishes (2×10^6 cells/dish) and transfected with 8 μg each of psiU6BX3.0-Mock (without insertion), psiU6BX3.0-A7322 (#2, #3 and a mismatch construct (m#3) including three-base substitutions in #3), psiU6BX3.0-F3374V1 (#1, and #4), psiU6BX3.0-EGFP, psiU6BX3.0-SCR using FuGENE6 reagent (Roche) as described above. Inventors selected the psiU6BX3.0-introduced BT-549, BT-474, T47D and HBC4, with medium containing 0.2 mg/ml or 1 mg/ml of neomycin (Geneticin, Gibco BRL, Carlsbad, Calif.), respectively. […] To evaluate an effect of siRNAs, total RNAs were extracted from the cells at 4-day incubation with neomycin, and then the knockdown effect of siRNAs was examined by a semi-quantitative RT-PCR using specific primer sets;

BT-549 and BT-474 cells = test: colony-formation and MTT assays, A7322 siRNA
Experimental: as §1
Transfectants expressing siRNA were grown for 4 weeks in selective media containing neomycin, then fixed with 4% paraformaldehyde for 15 min before staining with Giemsa's solution (Merck, Whitehouse Station, N.J.) to assess colony number. To quantify cell viability, MTT assays were performed with cell counting kit-8 4 days after transfection according to manufacturer's recommendation (Wako, Osaka, Japan). Absorbance at 570 nm wavelength was measured with a Microplate Reader 550 (Bio-Rad). […]

F3374 = test: western blot of F3374 after siF3374 oligonucleotide; details: HBC4 cells
Source text: (§2) Furthermore, the present inventors used siRNA oligonucleotides (Sigma Aldrich Japan KK, Tokyo, Japan) due to its high transfection efficiency to further verify the knockdown effects of F3374 and AURKB on cell morphology. The sequences targeting each gene were as follows:
(§3) T47D or HBC4 cells (2.5×10^5 cells in 10 cm dish for FACS analysis) cells were transfected with those siRNAs using Lipofectamin RNAiMAX (Invitrogen) in Optimem (Invitrogen) medium according to the instructions of manufacture. Forty-eight hours after transfection, morphological changes of the HBC4 cells were examined by microscopy and by immunocytochemical staining analysis using Alexa Fluor 594 Phalloidin (Molecular Probe).

HBC4 cells = test: microscopy of morphological changes after siF3374; details: vs siEGFP
Source text: as §2, §3

CDK1 = test: immunoblotting of G2/M-arrested cells incubated with CDK1 inhibitor; details: T47D
Experimental: To detect expression of PBK/TOPK (WT, T9A, KD, T9A/KD), p47, p97 or PP1α proteins, immunoblottings were performed according to previous report (Park et al., 2006). Briefly, cells were lysed in lysis buffer (50 mM Tris-HCl, pH 8.0/150 mM NaCl/0.5% NP-40) followed by homogenization and incubation on ice for 30 minutes, only soluble fractions were separated from cell debris by centrifugation. After SDS-PAGE (sodium dodecyl sulfate polyacrylamide gel electrophoresis), the proteins were blotted onto nitrocellulose membrane (GE Healthcare, Buckinghamshire, United Kingdom), incubated with the corresponding antibodies, and visualized using an ECL detection kit (GE Healthcare). To collect the mitotic cells, the present inventors employed a “mitotic shake-off” method as described previously (Dechat T et al., EMBO J. 17: 4887-902 (1998)). A protein-protein interaction was examined by immunoprecipitation after co-transfection with above described constructs of interest to COS-7 cells using the FuGene6 reagent (Roche) as described previously (Shimo A et al., Cancer Sci 98: 174-81 (2007)) except using an anti-6×His antibody (Santa Cruz Biotechnology) to precipitated p97/VCP-myc-6×His protein. After washing 5 times with lysis buffer, immunocomplexes were loaded on a SDS-PAGE gel and immunoblotted as described above.
An active recombinant PBK/TOPK protein was purchased from Invitrogen (Carlsbad, Calif.), and recombinant proteins of Histone H3 and Protein Phosohatase 1-alpha (PP1α were from Upstate Biotechnology (Lake Placidy, N.Y.). Cyclin-dependent kinase-1 (CDK1 kinase) (cdc2/cyclin B1) and lambda protein phosphatase (λPPase) were from New England Biolabs (Ipswich, Mass.). The glutathione S-transferase (GST)-tagged PBK/TOPK (GST-PBK/TOPK) protein was expressed in Escherichia coli and purified with Glutathione Sepharose 4B beads (GE Heath care, Buckinghamshire, United Kingdom) according to the previous report (Lin et al., 2007). […]

F3374 protein = test: western blot of F3374 protein after siAURKB; details: T47D cells; vs siEGFP
Experimental: To detect the endogenous F3374 and AURKB proteins in breast cancer cell lines (HBC4, BT-549, HBC5, HBL100, HCC1937, MCF-7, MDA-MB-231, MDA-MB-453, SKBR3, and T47D, and ZR75-1) and human mammary gland epithelial cell (HMEC), cells were lysed in lysis buffer (50 mM Tris-HCl, pH 8.0/150 mM NaCl/0.5% NP-40) including 0.1% protease inhibitor cocktail III (Calbiochem, San Diego, Calif.). The amount of total protein was estimated by protein assay kit (Bio-Rad, Hercules, Calif.), and then proteins were mixed with SDS-sample buffer and boiled before loading at 10% SDS-PAGE gel. After electrophoresis, the proteins were blotted onto nitrocellulose membrane (GE Healthcare). After blocking with blocking solution (4% BlockAce; Dainippon Pharmaceutical. Co., Ltd, Osaka, Japan), membranes blotting proteins were incubated with anti-F3374 polyclonal antibody at 1:100 dilutions or anti-AURKB rabbit polyclonal antibody (abcam, Cambridge, UK) at 1:100 dilutions for detection of endogenous F3374 or AURKB protein. Finally the membrane was incubated with HRP conjugated-secondary antibody and protein-bands were visualized by ECL detection reagents (GE Healthcare). Beta-actin was examined to serve as a loading control. […]

COC(=O)Nc1nc2ccc(C(=O)c3cccs3)cc2[nH]1 [nocodazole]
intensity of high-molecular (phosphorylated) band of endogenous PBK/TOPK (PBK/TOPK [1]): elevated in a time-dependent manner | proportion of cells at the G2/M phase (T47D cells; 6 to 18 h): elevated | cells synchronized at G2/M phase (T47D cells; treatment for 16 hours): 61-70%

C=C1[C@@H](O)[C@@H]2O[C@]3(CC[C@H](/C=C/[C@@H](C)[C@@H]4CC(C)=C[C@@]5(O[C@H](C[C@@](C)(O)C(=O)O)CC[C@H]5O)O4)O3)CC[C@H]2O[C@@H]1[C@@H](O)C[C@H](C)[C@H]1O[C@@]2(CCCCO2)CC[C@H]1C [OA, okadaic acid]
phosphorylation of PBK/TOPK (PBK/TOPK [2]; 100 nM for 9 hours): induced | phosphorylation of PBK/TOPK (PBK/TOPK [2]; low concentration (less than 100 nM)): not

m#3: mismatch siRNA with 3-bp replacement in A7322 si-#3, 5′-AATATTCGATCTCTGCCACAC-3′ (SEQ ID NO: 36) (listed as DNA, chemistry not given here)
expression level of A7322 (A7322): no suppressive effect | growth of BT-549 and BT-474 cells (BT-549 and BT-474 cells): no suppressive effect

siF3374: siRNA oligonucleotide 5′-ACUCCUACGUUCUCUAUUA-3′ (SEQ ID NO: 65) targeting F3374 (listed as RNA, chemistry not given here)
knockdown effect at the protein level (F3374) (F3374): significant knockdown effect | morphological alterations: cell size (HBC4 cells): enlargement of the size of the cells | morphological alterations: cytokinesis (HBC4 cells): appearance of the intercellular bridges between two separating-cells

CCn1cnc2c(Nc3cccc(Cl)c3)nc(N[C@@H]3CCCC[C@@H]3N)nc21 [CDK1 inhibitor, CGP74514A]
phosphorylation level of the Rb protein at Ser807 and 811 (CDK1; 0 to 4 hours): decreased phosphorylation level | phosphorylation of PP1α at Thr320 (CDK1; 0 to 4 hours): reduced phosphorylation | phosphorylation of PBK/TOPK induced by G2/M arrest (CDK1; 0 to 4 hours after nocodazole 16 hours): diminished in time-dependent manner

siAURKB: siRNA oligonucleotide 5′-AAGGUGAUGGAGAAUAGCAGU-3′ (SEQ ID NO: 66) targeting AURKB (listed as RNA, chemistry not given here)
phosphorylated F3374 protein (F3374 protein): significant decrease | total F3374 protein (F3374 protein): significant decrease
